Results from article PMC11420244, “Evaluation of the effect of modafinil on the pharmacokinetics of encorafenib and binimetinib in patients with BRAF V600-mutant advanced solid tumors” (Cancer Chemotherapy and Pharmacology, 2024).
Like-named read-outs stand apart in the source and are kept apart here.

Columns and labels:
[1] = Phase 1 clinical DDI study: steady-state plasma PK (noncompartmental analysis) with and without modafinil; assay type: in vivo, Human; details: for MRAUC last (metabolite ratio), Median (range) / MRC max (metabolite ratio), Median (range): metabolite to parent; for AUClast, Median (range) / Cmax, Median (range) / T1/2, Median (range) / Tmax, Median (range) / Tmax / AUC(0-t) / Cmax / half-life: plasma, patients; for Tmax / AUC(0-t) / Cmax / half-life: human; for Tmax: read-out: Tmax, Median (range)
Experimental: Encorafenib 450 mg QD and binimetinib 45 mg BID were administered starting on Day 1. Patients then received continuous treatment of 400 mg QD modafinil on Day 15 through Day 21. Blood samples for measurement of plasma concentrations of encorafenib (and its metabolite, LHY746) and binimetinib (and its active metabolite, AR00426032), were collected at 0, 1, 2, 3, 4, 6 and 8 h post dose on Day 14 and Day 21.
Human PK plasma samples were analyzed for quantitation of all PK analytes at PPD (Middleton, Wisconsin, US) using validated, sensitive, and specific HPLC/MS/MS methods in compliance with laboratory SOPs.
PK parameters including, but not limited to, Cmax and AUClast were calculated for each participant using noncompartmental analysis (NCA) methods using the WinNonlin software package (Phoenix WinNonlin Professional, version 8.0 Pharsight Corporation, Mountain View, California) for PK analytes including encorafenib and its metabolite LHY746, and binimetinib and its metabolite AR00426032.
All patients who received at least one dose of any study drug were included in the Safety Set population. The Evaluable PK Set included all patients with sufficient concentration data to calculate at least one PK parameter for encorafenib and binimetinib on Days 14 and 21. Patients who discontinued, missed 3 or more consecutive doses of encorafenib prior to completion of the last PK sampling on Day 14, or required a dose reduction of encorafenib prior to completion of the last PK sampling on Day 14 were excluded from the Evaluable PK set. In addition, patients who missed any dose of study drugs on any of the PK days, or who vomited within 4 h after dosing on any of the PK days were excluded from Evaluable PK set.
An analysis of variance (ANOVA) was performed on the natural log (ln)-transformed Cmax and AUClast of encorafenib, LHY746, binimetinib, and AR00426032. The least squares means (LSM) geometric mean ratio (GMR) and associated 90% confidence interval (CI) for each PK parameter were calculated using the exponentiation of the difference between treatment LSM from the analyses on the ln-transformed parameters and expressed as a percentage of Day 21 relative to Day 14.

[2] = Reported DDI studies of CYP3A substrates with strong, moderate or weak CYP3A inducers; assay type: in vivo
From the text: (§1) Another strategy to predict the effect strong induction may have on encorafenib PK, or the PK of other CYP3A substrates, but with fewer assumptions was proposed in a review by Molenaar-Kuijsten et al.. Based on a review of 12 approved oral anticancer drugs primarily metabolized by CYP3A, if no clinical DDI data were available for moderate inducers, an effect of 50% compared to strong inducers could be assumed. After expanding the dataset of Molenaar-Kuijsten to include 3 additional approved oral anti-cancer drugs (fuzuloparib, pirtobrutinib, and fedratinib) metabolized by CYP3A, we applied this approach in the opposite direction (lack of clinical data for the effect of strong CYP3A4 inducers) given available clinical DDI data generated in this study for encorafenib (Table 3). The median ratio of the decrease for a strong inducer to a moderate inducer was 1.56 and ranged from 1.15 for cobimetinib to 2.43 for palbociclib. […] The upper end of this range is consistent with PBPK simulations conducted prior to the study, indicating encorafenib exposures would decrease by ∼ 58% in combination with rifampin (based on a model with some simplifying assumptions) and would also be consistent with the recommendations based on in vitro data to avoid strong inducers in combination with encorafenib. This approach to managing potential coadminsitration of encorafenib with a strong inducer of CYP3A is the most conservative due to lack of more precise extrapolation methods and clincial data.

[3] = cited from earlier work; for Effect of Strong CYP3A Inducer on AUC (decrease): Rifampin
[4] = cited from earlier work
[5] = Extrapolation of strong CYP3A inducer effect on encorafenib from the moderate inducer effect (strong/moderate ratio approach); details: extrapolated from the modafinil effect with strong/moderate ratios 1.15 to 2.43
From the text: as §1, with “This approach to managing potential coadminsitration of encorafenib with a strong inducer of CYP3A is the most conservative due to lack of more precise extrapolation methods and clincial data.” left out

[6] = system: CYP3A4; set-up: method as in earlier work; details: human liver microsomes; cited from earlier work
[7] = system: CYP2C19; details: cited from earlier work
[8] = set-up: method as in PMID 37837178; details: cited from earlier work
[9] = set-up: method as in PMID 28611198; details: cited from earlier work
[10] = cited from earlier work; remark: listed apart in the source
[11] = Day 14, without modafinil, steady state
[12] = Day 21 (with modafinil) relative to Day 14 (without)
[13] = Day 21, with modafinil 400 mg QD
[14] = Day 21, with modafinil 400 mg QD, steady state

O=C(NOCCO)c1cc2[nH]cnc2c(F)c1Nc1ccc(Br)cc1F [AR00426032]
MRAUC last (metabolite ratio), Median (range) ([1]; Day 14, without modafinil): 0.0482 (0.0182–0.138) | MRC max (metabolite ratio), Median (range) ([1]; Day 14, without modafinil): 0.0367 (0.0165–0.0926) | AUClast, Median (range) [1, 11]: 127 (36.1–226) ng*hr/mL | Cmax, Median (range) [1, 11]: 27.5 (8.23–53.4) ng/mL | T1/2, Median (range) [1, 11]: 5.44 (2.57–8.86) hr | Tmax, Median (range) [1, 11]: 2.00 (0.88-3.00) hr | AUClast GMR (geometric mean ratio) [1, 12]: 0.977 | Cmax GMR (geometric mean ratio) [1, 12]: 0.954 | MRAUClast GMR [1, 12]: 1.02 | MRCmax GMR [1, 12]: 0.950 | MRAUC last (metabolite ratio), Median (range) [1, 13]: 0.0440 (0.0275–0.123) | MRC max (metabolite ratio), Median (range) [1, 13]: 0.0335 (0.0192–0.0850) | AUClast, Median (range) [1, 14]: 111 (70.9–197) ng*hr/mL | Cmax, Median (range) [1, 14]: 23.8 (13.7–40.0) ng/mL | T1/2, Median (range) [1, 14]: 5.75 (2.88–18.1) hr | Tmax, Median (range) [1, 14]: 2.00 (0.95–2.23) hr | Time at which mean plasma concentrations typically reach peak levels, postdose ([1]; Days 14 and 21, steady state): 2 h

Cc1cc(Nc2ncc(Cl)c(Nc3ccccc3S(=O)(=O)C(C)C)n2)c(OC(C)C)cc1C1CCNCC1 [Ceritinib]
Strong CYP3A Inducer Effect /Moderate CYP3A Inducer Effect ([2]; ratio of AUC decreases): 1.59 | Effect of Moderate CYP3A Inducer on AUC (decrease) ([3]; Efavirenz): ↓ 43% | Effect of Strong CYP3A Inducer on AUC (decrease) [3]: ↓ 68.5%

O=C(c1ccc(F)c(F)c1Nc1ccc(I)cc1F)N1CC(O)([C@@H]2CCCCN2)C1 [Cobimetinib]
Strong CYP3A Inducer Effect /Moderate CYP3A Inducer Effect ([2]; ratio of AUC decreases): 1.15 | Predicted reduction in AUC with moderate CYP3A inducer ([4]; PBPK modeling): 72% | Predicted reduction in AUC with strong CYP3A inducer ([4]; PBPK modeling): 83% | Effect of Moderate CYP3A Inducer on AUC (decrease) ([3]; Efavirenz): ↓ 72% | Effect of Strong CYP3A Inducer on AUC (decrease) [3]: ↓ 83% | Reduction in exposure in combination with weak CYP3A inducer vemurafenib ([3]; in vivo): 13%

COC(=O)N[C@@H](C)CNc1nccc(-c2cn(C(C)C)nc2-c2cc(Cl)cc(NS(C)(=O)=O)c2F)n1 [Encorafenib, encorafenib]
AUClast GMR (geometric mean ratio) [1, 12]: 0.762 | Cmax GMR (geometric mean ratio) [1, 12]: 0.798 | Effect of steady-state modafinil on exposure/PK (in words) ([1]; Day 21 vs Day 14, modafinil 400 mg QD): weak effect | Tmax ([1]; oral, Day 14, without modafinil, steady state): 1 h | Tmax ([1]; oral, Day 21, with modafinil 400 mg QD, steady state): 1 h | AUC(0-t) ([1]; oral, 400 mg, Day 21, with modafinil 400 mg QD, steady state, read-out: AUClast, GM (CV%)): 9100 ng·h/mL | AUC(0-t) ([1]; oral, 400 mg, Day 21, with modafinil 400 mg QD, steady state, read-out: AUClast, Median (range)): 10000 ng·h/mL | Cmax ([1]; oral, 400 mg, Day 21, with modafinil 400 mg QD, steady state, read-out: Cmax, Median (range)): 2750 ng/mL | half-life ([1]; oral, 400 mg, Day 21, with modafinil 400 mg QD, steady state, read-out: T1/2, GM (CV%) (converted)): 3.57 h | half-life ([1]; oral, 400 mg, Day 21, with modafinil 400 mg QD, steady state, read-out: T1/2, Median (range) (converted)): 3.8 h | AUC(0-t) ([1]; oral, Day 14, without modafinil, steady state, read-out: AUClast, GM (CV%)): 11900 ng·h/mL | AUC(0-t) ([1]; oral, Day 14, without modafinil, steady state, read-out: AUClast, Median (range)): 11800 ng·h/mL | Cmax ([1]; oral, Day 14, without modafinil, steady state, read-out: Cmax, Median (range)): 3560 ng/mL | half-life ([1]; oral, Day 14, without modafinil, steady state, read-out: T1/2, GM (CV%) (converted)): 3.48 h | half-life ([1]; oral, Day 14, without modafinil, steady state, read-out: T1/2, Median (range) (converted)): 3.5 h | Cmax ([1]; po, Day 14, without modafinil, steady state, encorafenib 450 mg QD + binimetinib 45 mg BID oral, read-out: Cmax, GM (CV%)): 3540 ng/mL | Cmax ([1]; po, Day 21, with modafinil 400 mg QD Days 15-21, steady state, encorafenib 450 mg QD + binimetinib 45 mg BID oral, read-out: Cmax, GM (CV%)): 2830 ng/mL | Expected reduction in AUC with a strong CYP3A inducer [5]: 28–58% | Contribution of CYP3A4 to total oxidative clearance [6]: ~83% | Contribution of CYP2C19 to oxidative metabolism [7]: ~16% | Increase in exposures on coadministration of moderate CYP3A4 inhibitor diltiazem [8]: 2 fold | Increase in exposures on coadministration of strong CYP3A inhibitor posaconazole [8]: 3 fold | Lower exposure at steady-state compared to following a single dose (auto-induction of CYP3A4) [9]: approximately 50% | Simulated decrease of exposures in combination with rifampin ([4]; PBPK simulations conducted prior to the study): ~58%

Cc1cnc(Nc2ccc(OCCN3CCCC3)cc2)nc1Nc1cccc(S(=O)(=O)NC(C)(C)C)c1 [Fedratinib]
Strong CYP3A Inducer Effect /Moderate CYP3A Inducer Effect ([2]; ratio of AUC decreases): 1.72 | Effect of Moderate CYP3A Inducer on AUC (decrease) ([3]; Efavirenz): ↓ 47% | Effect of Strong CYP3A Inducer on AUC (decrease) [3]: ↓ 81%

O=C(c1cc(Cc2n[nH]c(=O)c3ccccc23)ccc1F)N1CCn2nc(C(F)(F)F)nc2C1 [Fuzuloparib]
Strong CYP3A Inducer Effect /Moderate CYP3A Inducer Effect ([2]; ratio of AUC decreases): 1.45 | Effect of Moderate CYP3A Inducer on AUC (decrease) ([3]; Efavirenz): ↓ 22% | Effect of Strong CYP3A Inducer on AUC (decrease) [3]: ↓ 32%

O=C(c1cc(Cc2n[nH]c(=O)c3ccccc23)ccc1F)N1CCN(C(=O)C2CC2)CC1 [Olaparib]
Strong CYP3A Inducer Effect /Moderate CYP3A Inducer Effect ([2]; ratio of AUC decreases): 1.38 | Effect of Moderate CYP3A Inducer on AUC (decrease) ([3]; Efavirenz): ↓ 57.3%

C=CC(=O)Nc1cc(Nc2nccc(-c3cn(C)c4ccccc34)n2)c(OC)cc1N(C)CCN(C)C [Osimertinib]
Strong CYP3A Inducer Effect /Moderate CYP3A Inducer Effect ([2]; human, in vivo): 1.87 | Effect of Moderate CYP3A Inducer on AUC (decrease) ([3]; Efavirenz): ↓ 42% | Effect of Strong CYP3A Inducer on AUC (decrease) [3]: ↓ 78.5% | Effect of Strong CYP3A Inducer on AUC (decrease) ([3]; listed as osimertinib): 87%

CC(=O)c1c(C)c2cnc(Nc3ccc(N4CCNCC4)cn3)nc2n(C2CCCC2)c1=O [Palbociclib]
Strong CYP3A Inducer Effect /Moderate CYP3A Inducer Effect ([2]; ratio of AUC decreases): 2.43 | Effect of Moderate CYP3A Inducer on AUC (decrease) ([3]; Efavirenz): 38% | Effect of Moderate CYP3A Inducer on AUC (decrease) ([3]; Modafinil): 32% | Effect of Strong CYP3A Inducer on AUC (decrease) [3]: ↓ 85.2% | Effect of Moderate CYP3A Inducer on AUC (decrease), mean ([3]; mean of modafinil and efavirenz): ↓ 35% (mean)

COc1ccc(F)cc1C(=O)NCc1ccc(-c2nn([C@@H](C)C(F)(F)F)c(N)c2C(N)=O)cc1 [Pirtobrutinib]
Strong CYP3A Inducer Effect /Moderate CYP3A Inducer Effect ([2]; ratio of AUC decreases): 1.45 | Effect of Moderate CYP3A Inducer on AUC (decrease) ([3]; Efavirenz): ↓ 49% | Effect of Strong CYP3A Inducer on AUC (decrease) [3]: ↓ 71%

Cc1c(C(=O)Nc2ccc(N3C[C@@H](C)O[C@@H](C)C3)nc2)cccc1-c1ccc(OC(F)(F)F)cc1 [Sonidegib]
Strong CYP3A Inducer Effect /Moderate CYP3A Inducer Effect ([2]; ratio of AUC decreases): 1.56 | Effect of Moderate CYP3A Inducer on AUC (decrease) ([3]; Efavirenz): ↓ 49% | Effect of Strong CYP3A Inducer on AUC (decrease) [3]: ↓ 76.6%

O=C1Nc2ccc(Cl)cc2[C@@](C#CC2CC2)(C(F)(F)F)O1 [efavirenz]
Patients with neuropsychiatric effects [10]: up to 70%

NC(=O)C[S+]([O-])C(c1ccccc1)c1ccccc1 (stereo not shown) [modafinil]
Patients with headache (only observed AE above this frequency) [10]: > 15%

Cc1nnc2n1-c1ccc(Cl)cc1C(c1ccccc1Cl)=NC2 [triazolam]
Decrease on mean AUCinf with modafinil ([3]; modafinil 200 mg for 7 days followed by 400 mg for 21 days): 59%
